{"source": "paper PMC6093421", "about": "“Identification and characterization of terpene synthase genes accounting for volatile terpene emissions in flowers of Freesia x hybrida” (Journal of Experimental Botany, 2018)", "system": "T1, FhTPS7", "T1 construct": "gene TPS7; full-length ORF (570 residues, no transit peptide, TPS-a clade) in pET-32a, E. coli BL21 (DE3), Ni-purified", "assay": "GC-MS of hexane-extracted products, Michaelis-Menten non-linear fit", "assay_type": "biochemical, Freesia x hybrida", "conditions": "25 mM HEPES pH 7.4, 15 mM MgCl2, 5 mM DTT, 30 °C, 20 min", "description": "GC-MS of hexane-extracted products, Michaelis-Menten non-linear fit on FhTPS7"}
{"smiles": "CC(C)=CCC/C(C)=C/CC/C(C)=C/COP(=O)(O)OP(=O)(O)O", "note": "[FPP, farnesyl diphosphate]", "values": [{"measurement": "Km", "setting": "FPP 1–135 μM", "value": "5.01 ± 0.21", "unit": "µM"}]}
{"smiles": "CC(C)=CCC/C(C)=C/COP(=O)(O)OP(=O)(O)O", "note": "[GPP, geranyl diphosphate]", "values": [{"measurement": "Km", "setting": "GPP 3–270 μM", "value": "3.71 ± 0.19", "unit": "µM"}]}
